Data: PubChem BioAssay (NCI)
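Tested at 5 concentrations; 48 h exposure; 96-well plates; endpoints linearly interpolated, else capped at highest concentration. TGI marks complete inhibition of growth.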

How the values were obtained:
Test in all cases: inhibition of tumour cell growth, NCI panel, 48 h
UACC-62 melanoma = test system: UACC-62 melanoma
CCRF-CEM leukemia = test system: CCRF-CEM leukemia
MALME-3M melanoma = test system: MALME-3M melanoma
HL-60(TB) leukemia = test system: HL-60(TB) leukemia
MDA-N = test system: MDA-N
HS 578T breast = test system: HS 578T breast
OVCAR-4 ovarian = test system: OVCAR-4 ovarian
MDA-MB-435 = test system: MDA-MB-435
OVCAR-8 ovarian = test system: OVCAR-8 ovarian
COLO 205 colon = test system: COLO 205 colon
UO-31 renal = test system: UO-31 renal

Work on `O=C1Nc2ccccc2/C1=c1\[nH]c(=O)/c(=C\c2ccc(OCc3ccccc3)cn2)[nH]c1=O` yielded a TGI (UACC-62 melanoma) greater than 100 µM, a TGI (CCRF-CEM leukemia) greater than 100 µM and a TGI (MALME-3M melanoma) greater than 100 µM. The TGI (HL-60(TB) leukemia) was greater than 100 µM, the TGI (MDA-N) was greater than 100 µM and the TGI (HS 578T breast) was 70.1 µM. It also gave a TGI (OVCAR-4 ovarian) greater than 100 µM, a TGI (MDA-MB-435) greater than 100 µM and a TGI (OVCAR-8 ovarian) greater than 100 µM. For the same molecule, the TGI (COLO 205 colon) was greater than 100 µM and the TGI (UO-31 renal) was 0.848 µM.

With `CCN(CC)c1ccc(/C=C/C=C2C(=O)NC(=S)NC2=O)cc1` the TGI (UACC-62 melanoma) was greater than 100 µM, the TGI (CCRF-CEM leukemia) was greater than 100 µM and the TGI (MALME-3M melanoma) was greater than 100 µM. The TGI (HL-60(TB) leukemia) was 11 µM, the TGI (MDA-N) was greater than 61.6 µM and the TGI (HS 578T breast) was greater than 53.7 µM. The TGI (OVCAR-4 ovarian) was greater than 100 µM, the TGI (MDA-MB-435) was 34.7 µM and the TGI (OVCAR-8 ovarian) was 42.4 µM. It also gave a TGI (COLO 205 colon) greater than 100 µM and a TGI (UO-31 renal) greater than 100 µM.

In the case of `CN(C)c1cccc(NC2=NCCO2)c1`, the TGI (UACC-62 melanoma) is reported as greater than 100 µM, the TGI (CCRF-CEM leukemia) is reported as greater than 100 µM and the TGI (MALME-3M melanoma) is reported as greater than 100 µM. It also gave a TGI (HL-60(TB) leukemia) of 50.5 µM, a TGI (MDA-N) of 32.8 µM and a TGI (HS 578T breast) greater than 100 µM. It also gave a TGI (OVCAR-4 ovarian) greater than 100 µM, a TGI (MDA-MB-435) of 42.9 µM and a TGI (OVCAR-8 ovarian) greater than 100 µM. The TGI (COLO 205 colon) was 41.3 µM and the TGI (UO-31 renal) was greater than 100 µM.

`Fc1cccc(F)c1C1SCc2nc3ccc(Cl)cc3n21` (configuration not stated) showed a TGI (UACC-62 melanoma) greater than 100 µM, a TGI (CCRF-CEM leukemia) greater than 100 µM and a TGI (MALME-3M melanoma) greater than 100 µM. The TGI (HL-60(TB) leukemia) was greater than 100 µM, the TGI (MDA-N) was greater than 100 µM and the TGI (HS 578T breast) was greater than 100 µM. It also gave a TGI (OVCAR-4 ovarian) greater than 100 µM, a TGI (MDA-MB-435) greater than 100 µM and a TGI (OVCAR-8 ovarian) greater than 100 µM. For the same molecule, the TGI (COLO 205 colon) was greater than 100 µM and the TGI (UO-31 renal) was greater than 100 µM.

`Cn1c(N/N=C/c2ccccc2)nc(-c2ccc([N+](=O)[O-])cc2)c(C#N)c1=O` gave a TGI (UACC-62 melanoma) of 97.5 µM, a TGI (CCRF-CEM leukemia) greater than 100 µM and a TGI (MALME-3M melanoma) greater than 100 µM. The TGI (HL-60(TB) leukemia) was 48.3 µM, the TGI (MDA-N) was greater than 100 µM and the TGI (HS 578T breast) was greater than 100 µM. The TGI (OVCAR-4 ovarian) was greater than 100 µM, the TGI (MDA-MB-435) was greater than 100 µM and the TGI (OVCAR-8 ovarian) was greater than 100 µM. For the same molecule, the TGI (COLO 205 colon) was greater than 100 µM and the TGI (UO-31 renal) was greater than 100 µM.

`COc1ccc(-n2sc3ncccc3c2=O)cc1` was tested, and the TGI (UACC-62 melanoma) was greater than 100 µM, the TGI (CCRF-CEM leukemia) was greater than 100 µM and the TGI (MALME-3M melanoma) was 30.9 µM. It also gave a TGI (HL-60(TB) leukemia) of 41.5 µM, a TGI (MDA-N) of 40.7 µM and a TGI (HS 578T breast) of 62.8 µM. For the same molecule, the TGI (OVCAR-4 ovarian) was greater than 100 µM, the TGI (MDA-MB-435) was 66.7 µM and the TGI (OVCAR-8 ovarian) was 70.3 µM. The TGI (COLO 205 colon) was 35 µM and the TGI (UO-31 renal) was 33.7 µM.

`C(=C\N1CCCCC1)/c1nnnn1-c1ccccc1` gave a TGI (UACC-62 melanoma) of 54.5 µM, a TGI (CCRF-CEM leukemia) of 61.1 µM and a TGI (MALME-3M melanoma) greater than 100 µM. The TGI (HL-60(TB) leukemia) was 37.7 µM, the TGI (MDA-N) was greater than 100 µM and the TGI (HS 578T breast) was 49.4 µM. For the same molecule, the TGI (OVCAR-4 ovarian) was greater than 100 µM, the TGI (MDA-MB-435) was 66.1 µM and the TGI (OVCAR-8 ovarian) was 95 µM. For the same molecule, the TGI (COLO 205 colon) was greater than 100 µM and the TGI (UO-31 renal) was greater than 100 µM.

`CN(C)c1cc[n+](-c2nc(/N=C(\[O-])C(F)(F)F)nc3c2ncn3C2CC(O)C(CO)O2)cc1` (configuration not stated) was tested, and the TGI (UACC-62 melanoma) was greater than 100 µM, the TGI (CCRF-CEM leukemia) was greater than 100 µM and the TGI (MALME-3M melanoma) was greater than 100 µM. The TGI (HL-60(TB) leukemia) was greater than 100 µM, the TGI (MDA-N) was greater than 100 µM and the TGI (HS 578T breast) was greater than 100 µM. For the same molecule, the TGI (OVCAR-4 ovarian) was greater than 100 µM, the TGI (MDA-MB-435) was greater than 100 µM and the TGI (OVCAR-8 ovarian) was greater than 100 µM. For the same molecule, the TGI (COLO 205 colon) was greater than 100 µM and the TGI (UO-31 renal) was greater than 100 µM.

Molecule `NC(Cc1ccc(S(=O)(=O)O)cc1)C(=O)NC(Cc1ccc(S(=O)(=O)O)cc1)C(=O)O` (configuration not stated) has a TGI (UACC-62 melanoma) greater than 100 µM, a TGI (CCRF-CEM leukemia) greater than 100 µM and a TGI (MALME-3M melanoma) greater than 100 µM. The TGI (HL-60(TB) leukemia) was greater than 100 µM, the TGI (MDA-N) was greater than 100 µM and the TGI (HS 578T breast) was greater than 100 µM. It also gave a TGI (OVCAR-4 ovarian) greater than 100 µM, a TGI (MDA-MB-435) greater than 100 µM and a TGI (OVCAR-8 ovarian) greater than 100 µM. The TGI (COLO 205 colon) was greater than 100 µM and the TGI (UO-31 renal) was greater than 100 µM.

`O=[N+]([O-])c1ccc(O)c(/C=N/NC(=S)N2CCCCC2)c1` was tested, and the TGI (UACC-62 melanoma) was greater than 30.5 µM, the TGI (CCRF-CEM leukemia) was greater than 82 µM and the TGI (MALME-3M melanoma) was 10.3 µM. For the same molecule, the TGI (HL-60(TB) leukemia) was greater than 42.1 µM, the TGI (MDA-N) was 60.1 µM and the TGI (HS 578T breast) was greater than 60 µM. For the same molecule, the TGI (OVCAR-4 ovarian) was 50.7 µM, the TGI (MDA-MB-435) was greater than 83 µM and the TGI (OVCAR-8 ovarian) was 4.66 µM. For the same molecule, the TGI (COLO 205 colon) was greater than 37.9 µM and the TGI (UO-31 renal) was 4.58 µM.

`CC1CC(=O)N(N(C)C)C(C#N)(C#N)C1(C#N)C#N` (configuration not stated) gave a TGI (UACC-62 melanoma) of 39.3 µM, a TGI (CCRF-CEM leukemia) of 4.8 µM and a TGI (MALME-3M melanoma) of 29.3 µM. It also gave a TGI (HL-60(TB) leukemia) of 4.83 µM, a TGI (MDA-N) of 33.2 µM and a TGI (HS 578T breast) of 59.7 µM. For the same molecule, the TGI (OVCAR-4 ovarian) was 33.4 µM, the TGI (MDA-MB-435) was 32.9 µM and the TGI (OVCAR-8 ovarian) was 45.2 µM. The TGI (COLO 205 colon) was 7.99 µM and the TGI (UO-31 renal) was 31.3 µM.

Molecule `CCOC(=O)C1=C(C)N(c2ccc(OC)cc2)C2(O)C=CC(=O)C3=C(O)c4ccccc4C(=O)C312` (configuration not stated) has a TGI (UACC-62 melanoma) of 26.4 µM, a TGI (CCRF-CEM leukemia) of 15.9 µM and a TGI (MALME-3M melanoma) of 1.17 µM. It also gave a TGI (HL-60(TB) leukemia) of 21.6 µM, a TGI (MDA-N) of 34 µM and a TGI (HS 578T breast) of 33.5 µM. It also gave a TGI (OVCAR-4 ovarian) of 10.9 µM, a TGI (MDA-MB-435) of 18.7 µM and a TGI (OVCAR-8 ovarian) of 81.1 µM. It also gave a TGI (COLO 205 colon) of 24 µM and a TGI (UO-31 renal) of 31 µM.
